Measurements published in patent US7538090B1, “Exogenous surfactant protein B mimic” (Los Angeles Biomedical Research Institute at Harbor-UCLA …, priority 2004, dated 2009).
Entries after “also recorded” stand apart in the source; their conditions may differ.

Columns and labels:
lavaged rat model of RDS = assay: Oxygenation response in lavaged rat model of RDS; format: in vivo; conditions: for in vivo activity in the rat RDS model system: FIGS. 6A and 6B (oxygenation and dynamic compliance)
Source text: FIG. 6A illustrates an example of an oxygenation response of a lavaged rat model of RDS comparing INFASURF™, a known effective animal based (cow lung lavage that includes surfactant lipids and native Cow SP-B and SP—C proteins) supplement formulation (—◯—), pig native surfactant B in INFASURF™ lipids (—Δ—), Mini-B peptide in simulated INFASURF™ lipids (—▪—), the C-terminal domain of SP-B (residues 63-78) in the oxidized (--♦--) and reduced format (—∇--), a serine derivative the C-terminal domain of SP-B (residues 63-78) with cationic arginines (R) replaced with serine residues, in oxidized (—◯--) and (—∇—) format, the N-terminal domain of SP-B (residues 11 to 25 of native SP-B) in the monomer (—□—) and a dimer (—●--) conformation and ISPL alone (—Δ—). […] A Mini-B construct also compares favorably with the commercial preparation INFASURF™ that contains both the native SP-B and SP—C protein.
(§1) The activity of a Mini-B construct is very similar to that of the commercial preparation INFASURF™ that includes equimolar amounts of native SP-B in native lung surfactant lipids and native SP—C proteins typically used in present RDS therapies.

[1] = system: Rat RDS animal model system; assay: Dynamic compliance measurements in the Rat RDS animal model system; format: in vivo; conditions: peptide in simulated INFASURF lipids (ISPL), FIG. 6B
Source text: FIG. 6B represents dynamic compliance measurements (a measure of lung mechanical plasticity) in the Rat RDS animal model system comparing INFASURF™ replacement formulation, pig native surfactant B in INFASURF™ lipids (—◯—), a Mini-B construct in simulated INFASURF™ lipids (—▪—), the C-terminal domain of SP-B (residues 63-78) in the oxidized (--♦--) and reduced (—∇--) format, a serine derivative the C-terminal domain of SP-B (residues 63-78) with cationic arginines (R) replaced with serine residues, in oxidized (—◯--) and (—∇—) format, the N-terminal domain of SP-B (residues 11 to 25 of native SP-B) in the monomer (—□—) and dimer (—●--) conformation and ISPL alone (—Δ—).
as §1

[2] = Surface shear viscosity measurements in ISPL lipid dispersion; format: physicochemical; conditions: over surface pressures and compression-expansion cycles, FIG. 7
Source text: Surface shear viscosity measurements of a Mini-B construct in a simulated INFASURF™ lipid dispersion ISPL (cow lung lavage lipids) is represented in FIG. 7.

[3] = Brewster Angle Microscope images of monolayer surfaces on the Langmuir trough; format: physicochemical; conditions: Mini-B-ISPL lipids vs lipids alone; BAM images, FIG. 11
Source text: Brewster Angle Microscope images of monolayer surfaces of Mini-B-ISPL lipids versus lipids alone on the Langmuir trough as a fimcfion of surface pressure is represented in FIG. 11. […] This Mini-B induced lipid aggregation in monolayers is typical of the effect of native surfactant protein B and surfactant B type peptides.
Brewster Angle Microscope images of monlayer surfaces of Mini-B-synthetic cow lung lipids compared with the commercial surfactant preparation INFASURF™ that contains native SP-B and SP-C proteins is represented in FIG. 12. Preparations containing Mini-B aggregate lipids were similar to the commercial surfactant preparation.

[4] = Langmuir trough surface activity (surface pressure upon compression, respreading); format: physicochemical; conditions: in ISPL lipids vs lipids alone, FIG. 8, 9
Source text: Langmuir trough measurements of a Mini-B construct in ISPL lipids are represented in FIG. 8. The peptide at two different concentrations is compared to lipids […]. Lipids alone on the Langmuir trough show very little change in surface pressure with compression of the air-water interface film. […] Higher concentrations of a Mini-B construct in the lipids further enhance the surface activity of the preparation and show the characteristic chances in surface pressure as a function of compression/decompression of the lipid-peptide surface film that are associated with optimal in vitro activity typical of lung surfactant preparations containing SP-B native protein.
FIG. 9 illustrates Langmuir trough measurements of a Mini-B construct in ISPL. The construct was measured at a single concentration to show the consistent pressure dependent reproducibility of the construct in the lipids that is an important criteria of an effective lung surfactant dispersion. Lipids alone on the Langmuir trough show very little change in surface pressure with compression of the air-water interface film. […]

Substance | in vivo activity in the rat RDS model system (lavaged rat model of RDS) | dynamic compliance [1] | shear surface viscosity [2] | lipid aggregation in monolayers [3] | oxygenation response (lavaged rat model of RDS; lavaged rat model of RDS, peptide in simulated INFASURF lipids (ISPL), FIG. 6A) | surface activity (surface pressure as a function of film compression) [4]
B11-25: N-terminal domain of SP-B (residues 11 to 25 of native SP-B) (CRALIKRIQAMIPKG; Pulmonary surfactant-associated protein B; UniProt P07988 211-225, looked up, fragment) [reference compound] | relatively ineffective in vivo activity |  |  |  |  | 
B63-78: C-terminal domain of SP-B (residues 63-78) (GRMLPQLVCRLVLRCS; Pulmonary surfactant-associated protein B; UniProt P07988 263-278, looked up, fragment) [reference compound] | relatively ineffective in vivo activity |  |  |  |  | 
CWLCRALIKRIQAMIPKGGRMLPQLVCRLVLRCS [Mini-B, disulfide stabilized 34 residue cyclic peptide joining SP-B residues 8 to 25 and 63 to 78] | exceeds that observed for native pig SP-B in synthetic surfactant lipids | performs very nearly as well as the commercial preparation | remains constant at a large range of surface pressures | aggregate | outperforms all of the peptide segments of Mini-B separately; also recorded: closely parallels the oxygenation response that is observed for full-length native SP-B protein | enhances the surface activity
